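48-hour exposure; five concentrations; linearly interpolated endpoints. Abbreviation: GI50, concentration required for 50% inhibition of growth.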 Calls of active or inactive are those of the source. No stated cut-off is given here; in the data, active = GI50 up to about 1.1 µM and inactive = higher.
Tests used:
Assay in all cases: growth of human tumour cells (NCI), 48 h
[1] = tested on: SN12C
[2] = tested on: SK-MEL-28
[3] = tested on: U-251
[4] = tested on: SK-OV-3
[5] = tested on: HCT-116
[6] = tested on: SW-620
[7] = tested on: PC-3
[8] = tested on: HOP-62
[9] = tested on: SR
[10] = tested on: UACC-62
[11] = tested on: SF-295
[12] = tested on: K562
[13] = tested on: SF-268
[14] = tested on: NCI-H460
[15] = tested on: CCRF-CEM
[16] = tested on: OVCAR-8
[17] = tested on: 786-0
[18] = tested on: TK-10
[19] = tested on: MOLT-4

Compound	GI50 [1]	GI50 [2]	GI50 [3]	GI50 [4]	GI50 [5]	GI50 [6]	GI50 [7]	GI50 [8]	GI50 [9]	GI50 [10]	GI50 [11]	GI50 [12]	GI50 [13]	GI50 [14]	GI50 [15]	GI50 [16]	GI50 [17]	GI50 [18]	GI50 [19]
C=C(C=O)c1c2c(nc3ccccc13)C(=O)c1ccccc1C2=O	0.504 µM (active)	0.684 µM (active)	0.482 µM (active)	2.9 µM (inactive)	0.619 µM (active)	0.518 µM (active)	1.29 µM (inactive)	1.15 µM (inactive)	0.24 µM (active)	0.918 µM (active)	1.29 µM (inactive)	0.391 µM (active)	0.668 µM (active)	0.581 µM (active)	0.191 µM (active)	0.434 µM (active)	0.826 µM (active)	1.02 µM (active)	0.282 µM (active)
CNC(=O)/C(C#N)=C(\N)N1CCCC1	> 100 µM (inactive)	> 100 µM (inactive)	> 100 µM (inactive)	> 100 µM (inactive)	> 100 µM (inactive)	> 100 µM (inactive)	> 100 µM (inactive)	> 100 µM (inactive)	> 100 µM (inactive)	> 100 µM (inactive)	–	> 100 µM (inactive)	> 100 µM (inactive)	> 100 µM (inactive)	> 100 µM (inactive)	> 100 µM (inactive)	> 100 µM (inactive)	> 100 µM (inactive)	> 100 µM (inactive)
COc1ccc(/C=C2\N/C(=N\N=C/C(O)C(O)C(O)C(O)CO)NC2=O)cc1 (stereo not given)	23.9 µM (inactive)	44 µM (inactive)	20.7 µM (inactive)	24.9 µM (inactive)	53.6 µM (inactive)	76 µM (inactive)	26.2 µM (inactive)	24.9 µM (inactive)	45.2 µM (inactive)	–	40.5 µM (inactive)	62.8 µM (inactive)	22.7 µM (inactive)	42.7 µM (inactive)	38.1 µM (inactive)	32.4 µM (inactive)	35.5 µM (inactive)	41.6 µM (inactive)	8.63 µM (inactive)

— ChEMBL document CHEMBL1201862, “PubChem BioAssay data set” (2004)
